Experimental data as given in ChEMBL document CHEMBL4024712, “Synthesis, stability and mechanistic studies of potent anticryptococcal hexapeptides” (Eur J Med Chem, 2017).
Converted amounts (≈) assume the structure as drawn. The source made the active and inactive calls. The rule behind the calls is not given here. Non-standard residues stand in square brackets, D forms with d. Residues, ends and D or L forms follow the SMILES beside them. His(τ-Bzl) = N[C@@H](Cc1cn(Cc2ccccc2)cn1)C(=O)O; Phe(4-NH2) = Nc1ccc(C[C@H](N)C(=O)O)cc1; Phe(4-Me) = Cc1ccc(C[C@H](N)C(=O)O)cc1; Cha = N[C@@H](CC1CCCCC1)C(=O)O; Orn = NCCC[C@H](N)C(=O)O

Key:
Candida albicans [1] = experiment: Antifungal activity against Candida albicans by broth microdilution method; format: functional
Candida albicans [2] = experiment: Antifungal activity against Candida albicans ATCC 90028 after 18 to 24 hrs by Alamar blue assay; format: functional
Nakaseomyces glabratus = experiment: Antifungal activity against Candida glabrata ATCC 90030 after 18 to 24 hrs by Alamar blue assay; format: functional
Pichia kudriavzevii [3] = experiment: Fungicidal activity against Candida krusei ATCC 6258 after 18 to 24 hrs by Alamar blue assay; format: functional
Aspergillus fumigatus = experiment: Antifungal activity against Aspergillus fumigatus ATCC 90906 after 68 to 72 hrs by Alamar blue assay; format: functional
Cryptococcus neoformans [4] = experiment: Antifungal activity against Cryptococcus neoformans ATCC 90113 after 68 to 72 hrs by Alamar blue assay; format: functional
[5] = tested on: Mycobacterium intracellulare; experiment: Anti-bacterial activity against Mycobacterium intracellulare ATCC 23068 after 68 to 72 hrs by Alamar blue assay; format: functional, cell-based
Pseudomonas aeruginosa = experiment: Anti-bacterial activity against Pseudomonas aeruginosa ATCC 27853 by CLSI method; format: functional
Vero = experiment: Cytotoxicity against African green monkey Vero cells up to 10 ug/ml after 48 hrs by neutral red dye based assay; format: cell-based; details: chlorocebus sabaeus
[6] = Selectivity index ratio of cytotoxic concentration against African green monkey Vero cells to IC50 for Cryptococcus neoformans ATCC 90113; format: toxicity; details: read-out: Selectivity Index
Lipid bilayer [7] = experiment: Binding affinity to EYPC/EYPG small unilamellar vesicles at 0.1 uM by tryptophan fluorescence quenching assay
Lipid bilayer [8] = experiment: Binding affinity to EYPC/cholesterol small unilamellar vesicles at 0.1 uM by tryptophan fluorescence quenching assay; format: ADME
[9] = Proteolytic stability assessed as trypsin (unknown origin)-mediated compound hydrolysis at compound to trypsin ratio of 0.5 to […] measured after 24 hrs by RP-HPLC method; format: ADME; details: human
Cryptococcus neoformans [10] = experiment: Induction of cell lysis in Cryptococcus neoformans ATCC 90113 biofilm assessed as formation of holes at MIC after 1 hr by osmium tetroxide staining based scanning electron microscopic method; format: functional
Cryptococcus neoformans [11] = experiment: Induction of cell lysis in Cryptococcus neoformans ATCC 90113 biofilm assessed as cytoplasm leakage at MIC after 1 hr by photungstic acid/ammonium molybdate/uranyl acetatebased scanning based transmission electron microscopic method; format: functional
Candida albicans [12] = experiment: Fungicidal activity against Candida albicans ATCC 90028 after 18 to 24 hrs by Alamar blue assay; format: functional
Cryptococcus neoformans [13] = experiment: Fungicidal activity against Cryptococcus neoformans ATCC 90113 after 68 to 72 hrs by Alamar blue assay; format: functional
Staphylococcus aureus [14] = experiment: Anti-bacterial activity against Staphylococcus aureus ATCC 29213 by CLSI method; format: functional
Escherichia coli [15] = experiment: Anti-bacterial activity against Escherichia coli ATCC 35218 by CLSI method; format: functional
Pichia kudriavzevii [16] = experiment: Antifungal activity against Candida krusei ATCC 6258 after 18 to 24 hrs by Alamar blue assay; format: functional
Staphylococcus aureus [17] = experiment: Anti-bacterial activity against methicillin-resistant Staphylococcus aureus ATCC 33591 by CLSI method; format: functional
Cryptococcus neoformans [18] = experiment: Induction of cell lysis in Cryptococcus neoformans ATCC 90113 biofilm assessed as corrugated cells at MIC after 1 hr by osmium tetroxide staining based scanning electron microscopic method; format: functional
Cryptococcus neoformans [19] = experiment: Induction of cell lysis in Cryptococcus neoformans ATCC 90113 biofilm assessed as cell perturbation at MIC after 1 hr by osmium tetroxide staining based scanning electron microscopic method; format: functional
Cryptococcus neoformans [20] = experiment: Induction of cell lysis in Cryptococcus neoformans ATCC 90113 biofilm assessed as loss of cell wall at MIC after 1 hr by photungstic acid/ammonium molybdate/uranyl acetatebased scanning based transmission electron microscopic method; format: functional
Cryptococcus neoformans [21] = experiment: Induction of cell lysis in Cryptococcus neoformans ATCC 90113 biofilm assessed as formation of pits at MIC after 1 hr by photungstic acid/ammonium molybdate/uranyl acetatebased scanning based transmission electron microscopic method; format: functional
Lipid bilayer [22] = experiment: Disruption of EYPC/EYPG small unilamellar vesicles assessed as disfigured liposomes at 0.5 ug/ml by phosphotungstic acid staining based transmission electron microscopic method
Escherichia coli [23] = experiment: Bactericidal activity against Escherichia coli ATCC 35218 by CLSI method; format: functional
Lipid bilayer [24] = experiment: Disruption of EYPC/EYPG small unilamellar vesicles assessed as lysed liposomes at 0.5 ug/ml by phosphotungstic acid staining based transmission electron microscopic method
Lipid bilayer [25] = experiment: Disruption of EYPC/cholesterol small unilamellar vesicles at 0.5 ug/ml by phosphotungstic acid staining based transmission electron microscopic method; format: ADME
[26] = Staphylococcus aureus, ATCC 29213, read-out: IC50
[27] = Pichia kudriavzevii, ATCC 6258, read-out: IC50
[28] = Escherichia coli, ATCC 35218, read-out: IC50
[29] = Staphylococcus aureus, ATCC 33591, read-out: IC50

| SMILES | IC50 (Candida albicans [2]) | IC50 (Nakaseomyces glabratus) | MFC (Pichia kudriavzevii [3]) [µg/mL] | IC50 (Aspergillus fumigatus) | MIC (Cryptococcus neoformans [4]) [µg/mL] | IC50 [5] | IC50 (Pseudomonas aeruginosa) | Activity (Vero) | selectivity ratio [6] | Activity (Lipid bilayer [7]) | Activity (Lipid bilayer [8]) | Stability [9] | Activity (Cryptococcus neoformans [10]) | MFC (Cryptococcus neoformans [13]) [µg/mL] | IC50 (Staphylococcus aureus [14]; [26]) [µg/mL] | MIC (Pichia kudriavzevii [16]; Pichia kudriavzevii, ATCC 6258) [µg/mL] | IC50 (Pichia kudriavzevii [16]; [27]) [µg/mL] | IC50 (Cryptococcus neoformans [4]) [µg/mL] | IC50 (Escherichia coli [15]; [28]) [µg/mL] | IC50 (Staphylococcus aureus [17]; [29]) [µg/mL] | further results |
| --- | --- | --- | --- | --- | --- | --- | --- | --- | --- | --- | --- | --- | --- | --- | --- | --- | --- | --- | --- | --- | --- |
| NCCCC[C@H](NC(=O)[C@@H](Cc1ccccc1)NC(=O)[C@H](Cc1ccccc1)NC(=O)[C@@H](Cc1ccccc1)NC(=O)[C@@H](Cc1c[nH]c2ccccc12)NC(=O)[C@@H](N)Cc1c[nH]cn1)C(N)=O (H-H[dW][dF]F[dF]K-NH2) | – | – | – | – | – | – | – | – | – | – | – | – | – | – | – | – | – | – | – | – | IC50 (Candida albicans [1]): 6.8 µM |
| CC[C@H](C)[C@H](NC(=O)[C@H](CC1CCCCC1)NC(=O)[C@H](Cc1c[nH]c2ccccc12)NC(=O)[C@@H](N)CCCN)C(=O)N[C@H](Cc1ccccc1)C(=O)N[C@@H](Cc1cn(Cc2ccccc2)cn1)C(N)=O (H-[Orn]W[Cha]I[dF][His(τ-Bzl)]-NH2) | Not Active | Not Active | 10 (≈ 10.4 µM) | Not Active | 0.63 (≈ 0.657 µM) | Not Active | Not Active | Non-Toxic | 21 to 25 | Active | Non-Toxic | Stable | Active | – | – | – | – | – | – | – | Activity (Cryptococcus neoformans [11]): Active |
| CC[C@H](C)[C@H](NC(=O)[C@H](CC1CCCCC1)NC(=O)[C@@H](Cc1c[nH]c2ccccc12)NC(=O)[C@@H](N)CCCN)C(=O)N[C@@H](CC1CCCCC1)C(=O)N[C@@H](Cc1cn(Cc2ccccc2)cn1)C(N)=O (H-[Orn][dW][Cha]I[Cha][His(τ-Bzl)]-NH2) | – | – | 20 (≈ 20.7 µM) | Not Active | – | Not Active | Not Active | Non-Toxic | 21 to 25 | Active | Non-Toxic | – | – | 1.25 (≈ 1.3 µM) | 17.5 (≈ 18.1 µM) | – | – | – | – | – | MIC (Candida albicans [2]; Candida albicans, ATCC 90028): 20 µg/mL (≈ 20.7 µM); IC50 (Candida albicans [2]; Candida albicans, ATCC 90028, read-out: IC50): 17.4 µg/mL (≈ 18 µM); MFC (Candida albicans [12]): 20 µg/mL (≈ 20.7 µM); MIC (Nakaseomyces glabratus; Nakaseomyces glabratus, ATCC 90030): 20 µg/mL (≈ 20.7 µM); IC50 (Escherichia coli [15]): Not Active |
| Cc1ccc(C[C@H](NC(=O)[C@@H](Cc2ccccc2)NC(=O)[C@@H](Cc2c[nH]c3ccccc23)NC(=O)[C@@H](N)CCCN)C(=O)N[C@H](Cc2ccccc2)C(=O)N[C@@H](CCCN)C(N)=O)cc1 (H-[Orn][dW][dF][Phe(4-Me)][dF][Orn]-NH2) | Not Active | Not Active | 20 (≈ 22.5 µM) | Not Active | 0.63 (≈ 0.71 µM) | Not Active | Not Active | Non-Toxic | 21 to 25 | Active | Non-Toxic | Stable | – | 0.63 (≈ 0.71 µM) | – | 20 (≈ 22.5 µM) | 15.5 (≈ 17.5 µM) | 0.46 (≈ 0.519 µM) | 16.5 (≈ 18.6 µM) | – | IC50 (Staphylococcus aureus [17]): Not Active; IC50 (Staphylococcus aureus [14]): Not Active |
| Cc1ccc(C[C@H](NC(=O)[C@@H](Cc2ccccc2)NC(=O)[C@@H](Cc2c[nH]c3ccccc23)NC(=O)[C@@H](N)CCCN)C(=O)N[C@H](Cc2ccccc2)C(=O)N[C@@H](Cc2ccc(N)cc2)C(N)=O)cc1 (H-[Orn][dW][dF][Phe(4-Me)][dF][Phe(4-NH2)]-NH2) | Not Active | Not Active | – | Not Active | 5 (≈ 5.35 µM) | Not Active | Not Active | Non-Toxic | – | Active | Non-Toxic | – | – | 5 (≈ 5.35 µM) | > 20 | – | – | 4.73 (≈ 5.06 µM) | 19.5 (≈ 20.9 µM) | > 20 | IC50 (Pichia kudriavzevii [16]): Not Active; Activity (Cryptococcus neoformans [18]): Active; Activity (Cryptococcus neoformans [19]): Active; Activity (Cryptococcus neoformans [20]): Active |
| Cc1ccc(C[C@H](NC(=O)[C@@H](Cc2ccccc2)NC(=O)[C@@H](Cc2c[nH]c3ccccc23)NC(=O)[C@@H](N)CCCN)C(=O)N[C@H](Cc2ccccc2)C(=O)N[C@H](CCCCN)C(N)=O)cc1 (H-[Orn][dW][dF][Phe(4-Me)][dF][dK]-NH2) | Not Active | Not Active | 20 (≈ 22.2 µM) | Not Active | 0.63 (≈ 0.699 µM) | Not Active | – | Non-Toxic | 21 to 25 | Active | Non-Toxic | Stable | Active | 0.63 (≈ 0.699 µM) | > 20 | 20 (≈ 22.2 µM) | 12.1 (≈ 13.4 µM) | 0.4 (≈ 0.444 µM) | 8.2 (≈ 9.1 µM) | > 20 | Activity (Cryptococcus neoformans [21]): Active; Activity (Lipid bilayer [22]): Active; MIC (Escherichia coli [15]; Escherichia coli, ATCC 35218): 20 µg/mL (≈ 22.2 µM); MBC (Escherichia coli [23]): 20 µg/mL (≈ 22.2 µM); IC50 (Pseudomonas aeruginosa; Pseudomonas aeruginosa, ATCC 27853, read-out: IC50): 20 µg/mL (≈ 22.2 µM); Activity (Lipid bilayer [24]): Active; Activity (Lipid bilayer [25]): Non-Toxic |
